Experimental findings from PubChem BioAssay (NCI) are described below.

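Values below derive from 48-hour exposures of cells grown in 96-well plates, with endpoints linearly interpolated between the two concentrations bracketing the appropriate inhibition level. TGI: concentration producing complete growth inhibition.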

Among the test systems are 786-0 renal; A498 renal; A549 NSCLC; BT-549 breast; HL-60(TB) leukemia; K-562 leukemia; MCF7 breast; NCI-H226 lung; NCI-H23 lung; OVCAR-3 ovarian; OVCAR-4 ovarian; SK-OV-3 ovarian; SR leukemia; UACC-257 melanoma; UO-31 renal.
Common to all, as to experiment: growth of human tumour cells (NCI), 48 h

In the case of `Cc1cn(CCCCC2=NCCCN2)c(=O)[nH]c1=O`, the TGI in the experiment with 786-0 renal is over 30.1 µM; with A498 renal, over 49.4 µM; in the experiment on A549 NSCLC, over 54.4 µM; in the experiment with BT-549 breast, over 20.5 µM; in the experiment on HL-60(TB) leukemia, over 19.7 µM; in the experiment with K-562 leukemia it was over 37.2 µM. In addition, the TGI with MCF7 breast was over 34.4 µM; with NCI-H226 lung, over 81.3 µM; in the experiment on NCI-H23 lung, over 44.3 µM; in the experiment on OVCAR-3 ovarian, over 33.1 µM; in the experiment with OVCAR-4 ovarian, over 40.7 µM; with SK-OV-3 ovarian, over 40.7 µM. Also, the TGI is over 41 µM in the experiment with SR leukemia, over 33.9 µM with UACC-257 melanoma and over 31 µM with UO-31 renal.

For `CC1=NC(=Cc2ccccc2O)C(=O)N1n1c(-c2ccccc2)nc2ccccc2c1=O`, the TGI in the experiment on 786-0 renal, in the experiment on A498 renal, with A549 NSCLC, in the experiment with BT-549 breast, in the experiment on HL-60(TB) leukemia and in the experiment with K-562 leukemia was over 100 µM in each case. In addition, the TGI is 74.2 µM in the experiment on MCF7 breast; over 100 µM in the experiment on NCI-H226 lung; over 100 µM in the experiment on NCI-H23 lung; over 100 µM with OVCAR-3 ovarian; over 100 µM in the experiment on OVCAR-4 ovarian; over 100 µM with SK-OV-3 ovarian. The TGI in the experiment with SR leukemia, in the experiment on UACC-257 melanoma and in the experiment on UO-31 renal was over 100 µM in each case.

Consider `CC(C)=CCN1CC(C)C(=O)Nc2ccccc21` (stereo not given), for which the TGI in the experiment on 786-0 renal, with A498 renal, in the experiment on A549 NSCLC, in the experiment with BT-549 breast, in the experiment on HL-60(TB) leukemia and in the experiment with K-562 leukemia was over 100 µM throughout. For the same compound, the TGI in the experiment on MCF7 breast, in the experiment on NCI-H226 lung, in the experiment on NCI-H23 lung, in the experiment on OVCAR-3 ovarian, in the experiment on OVCAR-4 ovarian and in the experiment with SK-OV-3 ovarian was over 100 µM throughout. Moreover, the TGI in the experiment with SR leukemia, in the experiment with UACC-257 melanoma and with UO-31 renal was over 100 µM in each case.

Turning to `CCOC(=O)NNC(=O)NCc1cccc(CNC(=O)NNC(=O)OCC)c1`, the TGI with 786-0 renal, with A498 renal, in the experiment on A549 NSCLC, in the experiment on BT-549 breast, in the experiment with HL-60(TB) leukemia and in the experiment with K-562 leukemia was over 100 µM each time. Further, the TGI with MCF7 breast, with NCI-H226 lung, in the experiment with NCI-H23 lung, in the experiment on OVCAR-3 ovarian, in the experiment with OVCAR-4 ovarian and with SK-OV-3 ovarian was over 100 µM throughout. The TGI in the experiment with SR leukemia, with UACC-257 melanoma and in the experiment on UO-31 renal was over 100 µM in each case.

For the compound `COc1ccc(N2C(=O)/C(=C\c3cc(OC)c(OC)c(OC)c3)SC2c2ccccc2)cc1` (stereo not given), the TGI in the experiment with 786-0 renal, in the experiment on A498 renal, in the experiment with A549 NSCLC, with BT-549 breast, with HL-60(TB) leukemia and in the experiment on K-562 leukemia was over 100 µM each time. Moreover, the TGI with MCF7 breast, in the experiment with NCI-H226 lung, with NCI-H23 lung, in the experiment on OVCAR-3 ovarian, with OVCAR-4 ovarian and with SK-OV-3 ovarian was over 100 µM each time. Besides, the TGI with SR leukemia, in the experiment with UACC-257 melanoma and in the experiment with UO-31 renal was over 100 µM each time.

Consider `CCOC(=O)N1N=C(/C(C)=N/OC)C(C)S1=O` (stereo not given), for which the TGI with 786-0 renal, in the experiment on A498 renal, in the experiment on A549 NSCLC, with BT-549 breast, with HL-60(TB) leukemia and in the experiment with K-562 leukemia was over 100 µM each time. The TGI in the experiment on MCF7 breast, in the experiment on NCI-H226 lung, in the experiment with NCI-H23 lung, in the experiment with OVCAR-3 ovarian, in the experiment with OVCAR-4 ovarian and with SK-OV-3 ovarian was over 100 µM in each case. The TGI in the experiment with SR leukemia, with UACC-257 melanoma and with UO-31 renal was over 100 µM throughout.

`Nc1ncnc2oc(C3OC(COC(=O)c4ccccc4)C(OC(=O)c4ccccc4)C3OC(=O)c3ccccc3)nc12` (stereo not given): the TGI is over 100 µM in the experiment with 786-0 renal; 82.6 µM with A498 renal; over 100 µM in the experiment on A549 NSCLC; over 100 µM in the experiment on BT-549 breast; over 100 µM in the experiment on HL-60(TB) leukemia; over 100 µM in the experiment with K-562 leukemia. Also, the TGI in the experiment with MCF7 breast, in the experiment on NCI-H226 lung, with NCI-H23 lung, in the experiment on OVCAR-3 ovarian, in the experiment on OVCAR-4 ovarian and with SK-OV-3 ovarian was over 100 µM each time. The TGI in the experiment on SR leukemia, in the experiment on UACC-257 melanoma and in the experiment with UO-31 renal was over 100 µM each time.

With `Cc1cc(N(CCC#N)CCC#N)ccc1/C(N=Nc1cccc(Cl)c1)=N/NC(=O)c1cc(Cl)ccc1O`, the TGI in the experiment on 786-0 renal was 64.8 µM; with A498 renal it was 53.1 µM; in the experiment on A549 NSCLC, 75.7 µM; in the experiment with BT-549 breast, 62 µM; with HL-60(TB) leukemia, 9.06 µM; in the experiment on K-562 leukemia it was over 100 µM. Also, the TGI with MCF7 breast is over 100 µM; with NCI-H226 lung, 84.2 µM; with NCI-H23 lung, 31.1 µM; in the experiment on OVCAR-3 ovarian, 16.5 µM; in the experiment with OVCAR-4 ovarian, 55.8 µM; in the experiment on SK-OV-3 ovarian, 90.6 µM. The TGI is over 100 µM in the experiment on SR leukemia, 31.2 µM in the experiment on UACC-257 melanoma and 55.6 µM in the experiment with UO-31 renal.

As for `CC(=O)NC1C(OCc2ccccc2)OC(CO)C(O)C1OC(C)C(=O)NC(C)C(=O)NC(CCC(=O)NCCCCNc1c2ccccc2nc2cccc([N+](=O)[O-])c12)C(N)=O` (stereo not given), the TGI with 786-0 renal came to 0.146 µM; with A498 renal, 0.297 µM; in the experiment on A549 NSCLC, 0.838 µM; with BT-549 breast, 0.531 µM; in the experiment on HL-60(TB) leukemia it was 0.207 µM; in the experiment with K-562 leukemia, 12.5 µM. In addition, the TGI turned out to be 0.652 µM in the experiment with MCF7 breast; 0.43 µM with NCI-H226 lung; 0.221 µM in the experiment with NCI-H23 lung; 1.64 µM with OVCAR-3 ovarian; 0.645 µM in the experiment on OVCAR-4 ovarian; 3.55 µM with SK-OV-3 ovarian. The values for the TGI with SR leukemia, with UACC-257 melanoma and in the experiment with UO-31 renal were 0.0539 µM, 0.509 µM and 0.339 µM, respectively.

With `Fc1ccc(N2C(=S)SC(=Nc3ccccc3)C2=Nc2ccccc2)cc1`, the TGI in the experiment on 786-0 renal, in the experiment with A498 renal, in the experiment with A549 NSCLC, with BT-549 breast, in the experiment with HL-60(TB) leukemia and in the experiment on K-562 leukemia was over 100 µM throughout. Moreover, the TGI in the experiment on MCF7 breast, in the experiment with NCI-H226 lung, with NCI-H23 lung, with OVCAR-3 ovarian, with OVCAR-4 ovarian and with SK-OV-3 ovarian was over 100 µM each time. For the same compound, the TGI with SR leukemia, in the experiment on UACC-257 melanoma and in the experiment on UO-31 renal was over 100 µM each time.

Regarding `COc1ccc(OC)c(CNc2ccc(C(=O)O)cc2)c1`, the TGI with 786-0 renal, in the experiment on A498 renal, in the experiment with A549 NSCLC, in the experiment on BT-549 breast, in the experiment on HL-60(TB) leukemia and in the experiment with K-562 leukemia was over 100 µM in each case. The TGI in the experiment with MCF7 breast, with NCI-H226 lung, with NCI-H23 lung, with OVCAR-3 ovarian, in the experiment with OVCAR-4 ovarian and in the experiment with SK-OV-3 ovarian was over 100 µM throughout. The TGI with SR leukemia, in the experiment with UACC-257 melanoma and in the experiment with UO-31 renal was over 100 µM each time.
